Experimental data from US7547699B2, “Tetracyclic 6 azapyrazinoindolines as 5HT2C receptor agonists for obesity” (Hoffmann-La Roche Inc., priority 2005, dated 2009).

Tests used:
5-HT2C receptor [1] = target: T1, 5-HT2C receptor (Homo sapiens, UniProt P28335); test: Functional activity, FLIPR calcium assay in CHO cells expressing human 5-HT2C; type: cell-based; design: expressed in transfected cells; host or cells: CHO cells; conditions: for EC50: CHO cells, FLIPR, Fluo-3-AM, read-out: h5-HT2C EC50; for h5-HT2C Rel. Eff.: maximum fluorescent signal relative to 10 μM 5-HT (defined as 100%)
T1 sequence (P28335 33-458): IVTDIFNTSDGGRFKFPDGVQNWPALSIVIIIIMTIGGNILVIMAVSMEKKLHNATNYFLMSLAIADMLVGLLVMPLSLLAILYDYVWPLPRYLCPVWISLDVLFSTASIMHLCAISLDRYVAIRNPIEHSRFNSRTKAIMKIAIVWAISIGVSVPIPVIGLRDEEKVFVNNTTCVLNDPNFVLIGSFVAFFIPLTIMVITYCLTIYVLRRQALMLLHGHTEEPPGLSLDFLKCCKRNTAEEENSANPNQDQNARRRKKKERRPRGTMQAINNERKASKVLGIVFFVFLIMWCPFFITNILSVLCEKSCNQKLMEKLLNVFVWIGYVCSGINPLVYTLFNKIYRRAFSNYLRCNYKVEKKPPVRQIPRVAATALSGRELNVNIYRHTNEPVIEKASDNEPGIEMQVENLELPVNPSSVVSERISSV
Description: (§1) The functional activity of compounds of formula (I) was assayed using a Fluorimetric Imaging Plate Reader (FLIPR). CHO cells expressing the human 5-HT2C or human 5-HT2A receptors were counted and plated into standard 96 well microtitre plates on the day before testing to give a confluent monolayer. The cells were then loaded with the calcium sensitive dye, Fluo-3-AM. Unincorporated dye was removed using an automated cell washer to leave a total volume of 100 μL/well of assay buffer (Hanks balanced salt solution containing 20 mM Hepes and 2.5 mM probenecid). The drug (dissolved in 50 μL of the assay buffer) was added at a rate of 70 μL/sec to each well of the FLIPR 96 well plate during fluorescence measurements. The measurements were taken at 1 sec intervals and the maximum fluorescent signal was measured (approx 10-15 secs after drug addition) and compared with the response produced by 10 μM 5-HT (defined as 100%) to which it was expressed as a percentage response (relative efficacy). Dose response curves were constructed using Graphpad Prism (Graph Software Inc.).

5-HT2A receptor [2] = target: T2, 5-HT2A receptor (Homo sapiens, UniProt P28223); test: Functional activity, FLIPR calcium assay in CHO cells expressing human 5-HT2A; type: cell-based; design: expressed in transfected cells; host or cells: CHO cells; conditions: for EC50: CHO cells, FLIPR, Fluo-3-AM, read-out: h5-HT2A EC50; for h5-HT2A Rel. Eff.: maximum fluorescent signal relative to 10 μM 5-HT (defined as 100%)
T2 sequence (P28223 whole entry): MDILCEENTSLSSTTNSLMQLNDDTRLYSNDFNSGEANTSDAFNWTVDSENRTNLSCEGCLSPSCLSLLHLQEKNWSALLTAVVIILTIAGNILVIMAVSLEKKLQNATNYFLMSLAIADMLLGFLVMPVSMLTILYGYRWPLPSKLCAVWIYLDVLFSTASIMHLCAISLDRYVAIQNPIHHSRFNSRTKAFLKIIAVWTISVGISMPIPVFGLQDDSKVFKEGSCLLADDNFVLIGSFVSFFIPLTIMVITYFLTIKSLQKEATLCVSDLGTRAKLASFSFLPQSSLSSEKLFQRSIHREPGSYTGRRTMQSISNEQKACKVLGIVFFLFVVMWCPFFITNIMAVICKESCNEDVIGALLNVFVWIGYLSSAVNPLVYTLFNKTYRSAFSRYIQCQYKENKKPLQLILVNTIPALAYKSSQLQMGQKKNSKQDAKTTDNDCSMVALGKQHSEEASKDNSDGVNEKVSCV
Description: as §1

human 5-HT2B receptors = target: T3, human 5-HT2B receptors (Homo sapiens, UniProt P41595); test: Binding to 5-HT2B receptor, [3H]-5-HT radioligand, Method (b); conditions: human 5-HT2B receptors in a CHO cell line, read-out: Method (b) Ki (2B)
T3 construct: expressed in transfected cells; host or cells: CHO cell line
T3 sequence (P41595 whole entry): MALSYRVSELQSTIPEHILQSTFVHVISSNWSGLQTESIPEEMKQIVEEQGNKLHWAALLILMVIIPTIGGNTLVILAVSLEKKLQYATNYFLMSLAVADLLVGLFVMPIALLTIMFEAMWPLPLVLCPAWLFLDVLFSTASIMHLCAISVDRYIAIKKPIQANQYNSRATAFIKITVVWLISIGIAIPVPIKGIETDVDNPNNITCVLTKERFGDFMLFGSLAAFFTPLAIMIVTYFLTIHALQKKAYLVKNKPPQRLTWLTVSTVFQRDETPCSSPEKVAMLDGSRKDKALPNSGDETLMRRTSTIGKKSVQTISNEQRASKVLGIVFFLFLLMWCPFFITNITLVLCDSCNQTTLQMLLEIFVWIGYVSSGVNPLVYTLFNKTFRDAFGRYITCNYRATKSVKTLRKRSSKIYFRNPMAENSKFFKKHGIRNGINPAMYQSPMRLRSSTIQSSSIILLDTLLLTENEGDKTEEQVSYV
Description: (§2) The binding of compounds of formula (I) to serotonin receptors was determined in vitro by standard methods. The preparations were investigated in accordance with the assays given hereinafter.
Method (b): For the binding to the 5-HT2B receptor the 5-HT2B receptors were radiolabeled with [^3H]-5-HT. The affinity of the compounds for human 5-HT2B receptors in a CHO cell line was determined according to the procedure of K. Schmuck, C. Ullmer, P. Engels and H. Lubbert, FEBS Lett., 1994, 342, 85-90.

5-HT2A receptor [3] = target: T2, 5-HT2A receptor; test: Binding to 5-HT2A receptor, [125I]-DOI radioligand, Method (c); design: expressed in transfected cells; host or cells: CHO cell line; conditions: 5-HT2A receptors in a CHO cell line, read-out: Method (c) Ki (2A)
Description: as §2
Method (c): For the binding to the 5-HT2A receptor the 5-HT2A receptors were radiolabeled with [^125I]-DOI. The affinity of the compounds for 5-HT2A receptors in a CHO cell line was determined according to the procedure of D. J. McKenna and S. J. Peroutka, J. Neurosci., 1989, 9, 3482-90.

5-HT2C receptor [4] = target: T1, 5-HT2C receptor; test: Binding to 5-HT2C receptor, [3H]-5-HT radioligand, Method (a); design: expressed in transfected cells; host or cells: CHO cell line; conditions: 5-HT2C receptors in a CHO cell line, read-out: Method (a) Ki (2C)
Description: as §2
Method (a): For the binding to the 5-HT2C receptor the 5-HT2C receptors were radiolabeled with [^3H]-5-HT. The affinity of the compounds for 5-HT2C receptors in a CHO cell line was determined according to the procedure of D. Hoyer, G. Engel and H. O. Kalkman, European J. Pharmacol., 1985, 118, 13-23.

Row | melting point [°C] | SMILES | EC50 (5-HT2C receptor [1]) [nM] | h5-HT2C Rel. Eff. (5-HT2C receptor [1]) [%] | EC50 (5-HT2A receptor [2]) [nM] | h5-HT2A Rel. Eff. (5-HT2A receptor [2]) [%] | Ki (human 5-HT2B receptors) [nM] | Ki (5-HT2A receptor [3]) [nM] | Ki (5-HT2C receptor [4]) [nM]
1 | 118 to 119 | Cc1c2c(nc3c1C[C@@H]1CNC[C@@H](C)N31)COC2 | – | – | – | – | – | – | –
2 | 90 to 91 | C[C@@H]1OCc2cc3c(nc21)N1[C@@H](CNC[C@H]1C)C3 | – | – | – | – | – | – | –
3 | – | C[C@@H]1CNC[C@H]2Cc3cc4c(nc3N21)[C@H](C1CC1)OC4 [Example 17, (3S,5R,8aR)-3-Cyclopropyl-5-methyl-1,3,5,6,7,8,8a,9-octahydro-2-oxa-4,4b,7-triaza-cyclopehta[b]fluorene] | 12.4 | 95 | 534 | 35 | 760 | 635 | 23.4
4 | – | C[C@@H]1CNC[C@H]2Cc3cc4c(nc3N21)C(C)(C)OC4 [Example 19, (5R,8aR)-3,3,5-Trimethyl-1,3,5,6,7,8,8a,9-octahydro-2-oxa-4,4b,7-triaza-cyclopenta[b]fluorene] | 8.4 | 87 | > 1000 | 3 | 26.3 | 80.2 | 5.5
5 | – | C[C@@H]1CNC[C@H]2Cc3cc4c(nc3N21)CSC4 [Example 33, (5R,8aR)-5-Methyl-1,3,5,6,7,8,8a,9-octahydro-2-thia-4,4b,7-triaza-cyclopenta[b]fluorene] | – | – | – | – | 21.1 | 98.9 | 5.3
